Earlier results, collected in patent US20230416692A1 (BOARD OF REGENTS, THE UNIVERSITY OF TEXAS SYSTEM, priority 2020, published 2023).

Tested on: COVID-19
Settings: human, in vivo; cited from earlier work

Structure (SMILES)	fatality rate among hospitalized patients (in words)
CC[C@H]1OC(=O)[C@H](C)[C@@H](O[C@H]2C[C@@](C)(OC)[C@@H](O)[C@H](C)O2)[C@H](C)[C@@H](O[C@@H]2O[C@H](C)C[C@H](N(C)C)[C@H]2O)[C@](C)(O)C[C@@H](C)CN(C)[C@H](C)[C@@H](O)[C@]1(C)O [azithromycin]	not associated with significant differences in fatality rate
CCN(CCO)CCCC(C)Nc1ccnc2cc(Cl)ccc12 (centres unmarked) [hydroxychloroquine]	not associated with significant differences in fatality rate
